Laboratory results published in patent publication EP4700025A1, “AMIDE COMPOUND, PHARMACEUTICAL COMPOSITION COMPRISING SAME, AND USE THEREOF” (Suzhou Genhouse Bio Co., Ltd., priority 2023, dated 2024).
pEC50: −log10 of the molar value.

What was measured:
HCT-116 = test: CCK8 proliferation inhibition, HCT-116; type: cell-based; conditions: Homo sapiens, 192 h, CCK8, 8 days after drug treatment
Method: (§1) The above normally growing cells were digested with a cell trypsinization solution, centrifuged, counted, and seeded into a 96-well plate at an appropriate cell density (2000 cells/well) at 100 µL/well. The next day after cell seeding, the compounds at different concentrations were added to the wells. Three replicate wells were set for each concentration point, and a corresponding DMSO negative control group was also set. CCK8 solution was added to each well 8 days after drug treatment. The plate was incubated at 37 °C for a period of time (OD450 of the vehicle group reached 1.0 or higher) before the absorbance at 450 nm was read using a microplate reader. The inhibition rates were calculated, and the EC50 values were determined by fitting using the GraphPad Prism 7.0 software. Table 2. EC50 values of compounds at cellular level

SDMA [1] = test: SDMA Inhibition Assay in HCT-116 cells; type: cell-based; conditions: Homo sapiens, HCT-116, 96 hours
Method: (§2) The next day, the cells were treated with the compounds at different concentrations (with an initial concentration of 10 µM, 5-fold dilution, 9 concentration gradients). After 96 hours, the culture medium was pipetted out and the cells were washed 2 times with 100 µL of PBS. The cells were then fixed with 4% paraformaldehyde and incubated at room temperature for 20 min. The fixative solution was discarded, and the cells were washed with PBS. 150 µL of specialized blocking solution (containing 1% Triton-100) was added to each well for blocking at room temperature for 2 hours, and the plate was washed with PBS to remove excess blocking solution. […] The cells were incubated at 4 °C overnight. The next day, the cells were separately washed 2 times with 1× PBST. […] The cells were incubated at room temperature for 2 hours. The cells were washed 2 times with 1× PBST and 1 time with PBS. Fluorescence signals at 700 nm and 800 nm were separately detected using a Li-COR Odyssey two-color near-infrared laser imager. The inhibition rates were calculated, and the EC50 values were determined by fitting using the GraphPad Prism 7.0 software. Table 3. Inhibition of SDMA by test compounds

SDMA [2] = test: SDMA Inhibition Assay in HCT-116-MTAP^-/- cells; type: cell-based; conditions: Homo sapiens, 96 hours
Method: as §2

HCT-116-MTAP^-/- = test: CCK8 proliferation inhibition, HCT-116-MTAP^-/-; type: cell-based; conditions: Homo sapiens, 192 h; HCT-116-MTAP^-/- (MTAP-deficient); CCK8, 8 days after drug treatment
Method: as §1

SDMA [3] = test: SDMA Inhibition Assay in A549 cells; type: cell-based; conditions: Homo sapiens, A549, 96 hours
Method: as §2

A549 = test: CCK8 proliferation inhibition, A549; type: cell-based; conditions: Homo sapiens, 192 h, CCK8, 8 days after drug treatment
Method: as §1

[4] = Pharmacokinetic assay in mice; type: in vivo, Balb/c mice; conditions: plasma, mouse
Method: Eighteen male Balb/c mice aged 6 to 8 weeks were randomly divided into 2 groups (IV group and PO group). The corresponding compounds were administered to the animals in the IV group by tail intravenous injection at 2 mg/kg, and the corresponding compounds were administered to the animals in the PO group by oral gavage at 10 mg/kg or 100 mg/kg. The animals in the IV group were allowed free access to food and water, and the animals in the PO group were fasted overnight before administration and were fed 4 h after administration. Throughout the experiment, the animals were allowed free access to water. Plasma samples were separately collected at 0.083 h (only group IV), 0.25 h, 0.5 h, 1 h, 2 h, 4 h, 8 h, and 24 h after administration. About 100 µL of blood was collected from the orbit of the animal, placed into a 1.5 mL anticoagulation centrifuge tube, and centrifuged at 8000 rpm and 4 °C for 10 min. The upper plasma sample was transferred to an EP tube. The plasma samples were stored in a refrigerator at -80 °C until sample analysis. Pharmacokinetic parameters of the drug were calculated based on the drug concentration-time data, including the peak concentration Cmax, peak time Tmax, clearance rate CL, steady state apparent volume of distribution Vss, area under drug-time curve AUC, elimination half-life t1/2, bioavailability, and the like. Data below the 80% lower limit of quantification were excluded from the calculation of pharmacokinetic parameters.

Cn1ncc2c(N)nc3ccc(C(=O)N(Cc4ccc5c(c4)OC(F)(F)O5)C4CC4)cc3c21 [Example I-15]
pEC50 (HCT-116): 5.24 | pEC50 (SDMA [1]): 6.20 | pEC50 (SDMA [2]): 7.99 | pEC50 (HCT-116-MTAP^-/-): 7.47 | pEC50 (SDMA [3]): 8.12

CN(Cc1ccc2c(cnn2C)c1)C(=O)c1cc2c(cc1F)nc(N)c1cnn(C)c12 [Example I-18]
pEC50 (HCT-116): 5.46 | pEC50 (SDMA [1]): 5.99 | pEC50 (SDMA [2]): 8.51 | pEC50 (HCT-116-MTAP^-/-): 7.74 | pEC50 (SDMA [3]): 8.51

CN(Cc1ccc2cnn(C)c2c1)C(=O)c1cc2c(cc1F)nc(N)c1cnn(C)c12 [Example I-19]
pEC50 (HCT-116): < 5.00 | pEC50 (SDMA [1]): 6.08 | pEC50 (SDMA [2]): 8.18 | pEC50 (HCT-116-MTAP^-/-): 7.32 | pEC50 (SDMA [3]): 8.14

CN(Cc1ccc2nn(C)cc2c1)C(=O)c1cc2c(cc1F)nc(N)c1cnn(C)c12 [Example I-20]
pEC50 (HCT-116): < 5.00 | pEC50 (SDMA [1]): 6.06 | pEC50 (SDMA [2]): 8.26 | pEC50 (HCT-116-MTAP^-/-): 7.79 | pEC50 (SDMA [3]): 8.04

Cn1ncc2c(N)nc3cc(F)c(C(=O)N(CCN4CCOCC4)Cc4ccc5c(c4)OC(F)(F)O5)cc3c21 [Example I-21]
pEC50 (HCT-116): 5.58 | pEC50 (SDMA [1]): 6.53 | pEC50 (SDMA [2]): 8.52 | pEC50 (HCT-116-MTAP^-/-): 7.66 | pEC50 (SDMA [3]): 8.72

COCCN(Cc1ccc2c(c1)OC(F)(F)O2)C(=O)c1cc2c(cc1F)nc(N)c1cnn(C)c12 [Example I-23]
pEC50 (A549): 8.11 | pEC50 (SDMA [2]): 8.89 | pEC50 (HCT-116-MTAP^-/-): 8.68 | pEC50 (SDMA [3]): 9.10

COC[C@@H](C)N(Cc1ccc2c(c1)OC(F)(F)O2)C(=O)c1cc2c(cc1F)nc(N)c1cnn(C)c12 [Example I-24]
pEC50 (A549): 8.10 | pEC50 (SDMA [2]): 8.77 | pEC50 (HCT-116-MTAP^-/-): 8.49 | pEC50 (SDMA [3]): 9.00

CN1CCN(CCN(Cc2ccc3c(c2)OC(F)(F)O3)C(=O)c2cc3c(cc2F)nc(N)c2cnn(C)c23)CC1 [Example I-31]
pEC50 (HCT-116): 5.57 | pEC50 (SDMA [1]): 5.95 | pEC50 (SDMA [2]): 8.06 | pEC50 (HCT-116-MTAP^-/-): 7.45 | pEC50 (SDMA [3]): 8.17

Nc1nc2cnc(C(=O)N3CCOC[C@@H]3c3ccc4c(c3)OC(F)(F)O4)cc2c2c1COC2 [Example I-109]
AUC(0-t) ([4]; 2 mg/kg, IV 2mpk): 13.4 µM·h | AUC(0-t) ([4]; 10 mg/kg, PO 10mpk): 44.1 µM·h | Cmax ([4]; 10 mg/kg, PO 10mpk): 14.7 µM | pEC50 (HCT-116): 5.31 | pEC50 (SDMA [1]): 6.03 | pEC50 (SDMA [2]): 7.82 | pEC50 (HCT-116-MTAP^-/-): 7.72 | pEC50 (SDMA [3]): 8.55

Cn1ncc2c(N)nc3cnc(C(=O)N4CC5(CC5)OCC4c4ccc5c(c4)OC(F)(F)O5)cc3c21 (stereo not shown) [Example I-110]
pEC50 (SDMA [1]): < 6.00 | pEC50 (SDMA [2]): 7.44 | pEC50 (SDMA [3]): 7.72
